Measurements published in the supplement of paper PMC8967900.

What was measured:
Experiment in all cases: selective drug sensitivity score (sDSS, relative to normal bone marrow) (sDSS (score)); higher = more potent and effective on the cell line relative to normal bone marrow cells
Conditions in all cases: 72 h
[1] = tested on: KOPN-8
[2] = tested on: RCH-ACV
[3] = tested on: LC4-1
[4] = tested on: KASUMI-2
[5] = tested on: TANOUE
[6] = tested on: RPMI-8402
[7] = tested on: COG-LL-317
[8] = tested on: KASUMI-10
[9] = tested on: MHH-CALL-4
[10] = tested on: P12-ICHIKAWA
[11] = tested on: DND-41
[12] = tested on: HAL-01
[13] = tested on: NALM-6
[14] = tested on: NALM-16
[15] = tested on: REH
[16] = tested on: COG-LL-355h
[17] = tested on: CCRF-HSB2
[18] = tested on: SEM cells
[19] = tested on: TMD5
[20] = tested on: MOLT-4
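Also: ALL cell lines in 384-well plates, five doses spanning 10,000-fold, each plate scaled between vehicle and 100 µmol/L benzalkonium chloride controls, sDSS an adapted area-under-curve metric.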

Row | SMILES | selective drug sensitivity score [1] | selective drug sensitivity score [2] | selective drug sensitivity score [3] | selective drug sensitivity score [4] | selective drug sensitivity score [5] | selective drug sensitivity score [6] | selective drug sensitivity score [7] | selective drug sensitivity score [8] | selective drug sensitivity score [9] | selective drug sensitivity score [10] | selective drug sensitivity score [11] | selective drug sensitivity score [12] | selective drug sensitivity score [13] | selective drug sensitivity score [14] | selective drug sensitivity score [15] | selective drug sensitivity score [16] | selective drug sensitivity score [17] | selective drug sensitivity score [18] | selective drug sensitivity score [19] | selective drug sensitivity score [20]
1 | CN1CCN(C2CCC(n3cc(-c4ccc(Oc5ccccc5)cc4)c4c(N)ncnc43)CC2)CC1 (stereo not given) (top concentration 10000 nM) | 5.02 | 22.7 | -1.78 | -1.38 | -4.68 | 3.52 | 0.82 | 8.52 | 0.52 | 1.12 | 3.62 | 7.52 | 3.42 | 0.72 | 4.12 | -0.08 | 29.1 | 9.62 | 10.2 | 0.82
2 | COc1cccc2c1C(=O)c1c(O)c3c(c(O)c1C2=O)C[C@@](O)(C(=O)CO)C[C@@H]3O[C@H]1C[C@H](N)[C@@H](O)[C@H](C)O1 [Epirubicin] (top concentration 1000 nM) | 9.42 | 12.9 | 7.62 | 7.72 | -7.88 | 6.62 | 17 | 5.82 | 6.92 | 4.62 | -0.58 | -4.28 | 3.82 | -0.28 | 10.5 | 3.22 | 14.8 | 3.82 | 1.02 | 9.92
3 | CON(C)C(=O)N1N=C(c2cc(F)ccc2F)S[C@@]1(CCCN)c1ccccc1 [Filanesib] (top concentration 1000 nM) | 9.8 | 16.3 | 13.2 | 19.8 | -6.5 | 18.9 | 20.8 | 14.2 | 7.4 | 15.9 | 6.3 | 11.5 | 21 | 16.6 | 11.9 | 1.7 | 22.5 | 20.3 | 10.5 | 9.3
4 | CN(Cc1cnc2nc(N)nc(N)c2n1)c1ccc(C(=O)N[C@@H](CCC(=O)O)C(=O)O)cc1 [Methotrexate] (top concentration 5000 nM) | -0.12 | 9.48 | -0.02 | 0.28 | 15.3 | 20.2 | 9.18 | 9.88 | 9.68 | 15.8 | 15 | 17.1 | 16.4 | 6.68 | -0.22 | -0.42 | 14 | -0.42 | -0.42 | 11.2
5 | Cc1sc2c(c1C)C(c1ccc(Cl)cc1)=N[C@@H](CC(=O)NCCCCNC(=O)COc1cccc3c1C(=O)N(C1CCC(=O)NC1=O)C3=O)c1nnc(C)n1-2 (stereo not given in full) [dBET1] (top concentration 10000 nM) | 7.82 | 0.22 | 5.22 | -6.88 | -17.5 | -6.68 | 2.42 | 2.32 | 5.42 | -11.6 | -0.88 | -14.9 | -4.78 | -4.48 | -1.28 | 6.22 | 2.12 | -3.38 | -13.8 | -9.28
6 | CC[C@H](CC#N)OC(=O)N[C@@H](C)c1cccc(NC(=O)Nc2ccc(-c3cnco3)c(OC)c2)c1 [AVN944] (top concentration 10000 nM) | 19.5 | 22 | 5.34 | 14.4 | -3.66 | 11.9 | 20.6 | 10.1 | 2.44 | 14.2 | 8.44 | 5.54 | 15.5 | 0.24 | 16.8 | -2.16 | 14.5 | 7.04 | 2.74 | 15.6
7 | CO[C@H]1C[C@@H]2CC[C@@H](C)[C@@](O)(O2)C(=O)C(=O)N2CCCC[C@H]2C(=O)O[C@H]([C@H](C)C[C@@H]2CC[C@@H](OCCO)[C@H](OC)C2)CC(=O)[C@H](C)/C=C(\C)[C@@H](O)[C@@H](OC)C(=O)[C@H](C)C[C@H](C)/C=C/C=C/C=C/1C [Everolimus] (top concentration 100 nM) | 19.6 | 16 | 3.3 | 11.8 | -5.3 | -0.7 | 2.4 | -5.3 | -1.5 | -2.5 | 1.1 | 2.7 | -3.8 | -2 | 4 | 1.5 | 4.8 | 1.4 | -3.8 | -1.2
8 | CC[C@@]1(O)C(=O)OCc2c1cc1n(c2=O)Cc2cc3c(CN(C)C)c(O)ccc3nc2-1 [Topotecan] (top concentration 10000 nM) | 23.4 | 19.5 | 21.7 | 14.7 | -3.62 | 19.4 | 28 | 18 | 16.5 | 19.2 | 21.4 | 20 | 17.1 | 7.18 | 22.2 | 10.9 | 23.3 | 20.3 | 14.3 | 19.9
9 | O=c1[nH]c(=O)n([C@H]2C[C@H](O)[C@@H](CO)O2)cc1C(F)(F)F [Trifluridine] (top concentration 10000 nM) | 17.4 | 15.2 | 16 | 10.3 | -1.84 | 15.5 | 15.6 | 6.36 | 2.26 | 15.4 | 9.76 | 8.76 | 15 | 4.06 | 15.3 | 0.06 | -1.84 | 14.5 | -1.84 | 7.36
10 | COc1ccc(-c2ccc3c(N4CCOC[C@@H]4C)nc(N4CCOC[C@@H]4C)nc3n2)cc1CO [AZD8055] (top concentration 10000 nM) | 22.6 | 27.4 | 6.38 | 14.6 | -3.02 | 7.78 | 4.78 | 0.48 | 2.88 | 6.78 | 4.78 | 5.08 | 3.68 | 1.78 | 12.8 | 6.38 | 10.1 | 6.18 | -1.62 | 7.08
